Results reported in patent US20070049564A1 (Wyeth, priority 2005, published 2007).
Values after ≈ are worked out from the molar mass of the structure shown. Where two headings read alike, the source gives them in different places.

What was measured:
E. coli GC 3226 = experiment: MIC, broth microdilution; details: Escherichia coli, GC3226, E. coli GC 3226
E. coli GC 2232 = experiment: MIC, broth microdilution; details: Escherichia coli, GC2232, E. coli GC 2232
E. coli GC 2271 = experiment: MIC, broth microdilution; details: Escherichia coli, GC2271, E. coli GC 2271
P. aeruginosa GC 2214 = experiment: MIC, broth microdilution; details: Pseudomonas aeruginosa, GC2214, P. aeruginosa GC 2214
E. coli GC 2203 = experiment: MIC, broth microdilution; details: Escherichia coli, GC2203, E. coli GC 2203
E. coli GC 2235 = experiment: MIC, broth microdilution; details: Escherichia coli, GC2235, E. coli GC 2235
S. agalactiae GC 4564 = experiment: MIC, broth microdilution
E. coli GC 2270 = experiment: MIC, broth microdilution; details: Escherichia coli, GC2270, E. coli GC 2270
Staph. aureus Smith = experiment: In vivo activity (oral, iv; ED50) against Staph. aureus Smith in mice
Procedure: Representative examples of compounds of Formula I were tested for the oral efficacy using S. aureus Smith in mice.

E. faecalis GC 2267 = experiment: MIC, broth microdilution; details: Enterococcus faecalis, GC2267, E. faecalis GC 2267
S. aureus GC 6467 = experiment: MIC, broth microdilution; details: Staphylococcus aureus, GC6467, S. aureus GC 6467
S. aureus GC 2216 = experiment: MIC, broth microdilution; details: Staphylococcus aureus, GC2216, S. aureus GC 2216
S. pneumoniae* GC 4465 = experiment: MIC, broth microdilution; details: Streptococcus pneumoniae, S. pneumoniae* GC 4465
E. faecium GC 4556 = experiment: MIC, broth microdilution; details: Enterococcus faecium, GC4556, E. faecium GC 4556
S. aureus GC 6335 = experiment: MIC, broth microdilution; details: Staphylococcus aureus, GC6335, S. aureus GC 6335
E. coli GC 4559 = experiment: MIC, broth microdilution; details: Escherichia coli, GC4559, E. coli GC 4559
S. typhimurium GC 2172 = experiment: MIC, broth microdilution; details: Salmonella enterica, TYPHIMURIUM, S. typhimurium GC 2172
E. faecalis GC 2242 = experiment: MIC, broth microdilution; details: Enterococcus faecalis, GC2242, E. faecalis GC 2242
E. coli GC 4560 = experiment: MIC, broth microdilution; details: Escherichia coli, GC4560, E. coli GC 4560
E. coli GC 2231 = experiment: MIC, broth microdilution; details: Escherichia coli, GC2231, E. coli GC 2231
[1] = S. agalactiae GC 4564, Water pre-incubation
[2] = Streptococcus agalactiae, GC4564
[3] = Staphylococcus aureus, in Mus musculus, po, read-out: ED50 Staph Smith SOD
[4] = iv, read-out: ED50 Staph Smith SIV

SMILES	MIC (E. coli GC 3226; Mouse Serum pre-incubation) [µg/mL]	MIC (E. coli GC 3226; Water pre-incubation) [µg/mL]	MIC (E. coli GC 2232; Mouse Serum pre-incubation) [µg/mL]	MIC (E. coli GC 2232; Water pre-incubation) [µg/mL]	MIC (E. coli GC 2271; Mouse Serum pre-incubation) [µg/mL]	MIC (E. coli GC 2271; Water pre-incubation) [µg/mL]	MIC (P. aeruginosa GC 2214; Mouse Serum pre-incubation) [µg/mL]	MIC (P. aeruginosa GC 2214; Water pre-incubation) [µg/mL]	MIC (E. coli GC 2203; Mouse Serum pre-incubation) [µg/mL]	MIC (E. coli GC 2203; Water pre-incubation) [µg/mL]	MIC (E. coli GC 2235; Mouse Serum pre-incubation) [µg/mL]	MIC (E. coli GC 2235; Water pre-incubation) [µg/mL]	MIC (S. agalactiae GC 4564; [1]) [UG/ML]	MIC (S. agalactiae GC 4564; [2]) [µg/mL]	MIC (E. coli GC 2270; Mouse Serum pre-incubation) [µg/mL]	MIC (E. coli GC 2270; Water pre-incubation) [µg/mL]	ED50 (Staph. aureus Smith; [3]) [mg/kg]	ED50 (Staph. aureus Smith; [4]) [mg/kg]	MIC (E. faecalis GC 2267; Mouse Serum pre-incubation) [µg/mL]	MIC (E. faecalis GC 2267; Water pre-incubation) [µg/mL]	other results
CCCN(CC(=O)Nc1cc(N(C)C)c2c(c1O)C(=O)C1=C(O)[C@]3(O)C(=O)C(C(N)=O)=C(O)[C@@H](N(C)C)[C@@H]3C[C@@H]1C2)C(=O)OCOC(=O)Cc1ccccc1 [Example 11, ({[(2-{[(5aR,6aS,7S,10aS)-9-(aminocarbonyl)-4,7-bis(dimethylamino)-1,8,10a,11′-tetrahydroxy-10,12-dioxo-5,5a,6,6a,7,10,10a,12-octahydrotetracen-2-yl]amino}-2-oxoethyl)(propyl)amino]carbonyl}oxy)methyl phenylacetate]	0.5 (≈ 0.655 µM)	> 64	1 (≈ 1.31 µM)	16 (≈ 20.9 µM)	0.25 (≈ 0.327 µM)	4 (≈ 5.24 µM)	16 (≈ 20.9 µM)	> 64	0.25 (≈ 0.327 µM)	16 (≈ 20.9 µM)	0.25 (≈ 0.327 µM)	4 (≈ 5.24 µM)	<0.06	< 0.06	0.5 (≈ 0.655 µM)	8 (≈ 10.5 µM)	30.3	0.59	2 (≈ 2.62 µM)	2 (≈ 2.62 µM)	MIC (S. aureus GC 6467; Mouse Serum pre-incubation): 4 µg/mL (≈ 5.24 µM); MIC (S. aureus GC 6467; Water pre-incubation): 4 µg/mL (≈ 5.24 µM); MIC (S. aureus GC 2216; Mouse Serum pre-incubation): 0.5 µg/mL (≈ 0.655 µM); MIC (S. aureus GC 2216; Water pre-incubation): 0.5 µg/mL (≈ 0.655 µM); MIC (S. pneumoniae* GC 4465; Mouse Serum pre-incubation): < 0.06 µg/mL; MIC (S. pneumoniae* GC 4465; Water pre-incubation): < 0.06 µg/mL; MIC (E. faecium GC 4556; Mouse Serum pre-incubation): 0.25 µg/mL (≈ 0.327 µM); MIC (E. faecium GC 4556; Water pre-incubation): 0.5 µg/mL (≈ 0.655 µM); MIC (S. aureus GC 6335; Mouse Serum pre-incubation): 1 µg/mL (≈ 1.31 µM); MIC (S. aureus GC 6335; Water pre-incubation): 1 µg/mL (≈ 1.31 µM); MIC (E. coli GC 4559; Mouse Serum pre-incubation): 0.5 µg/mL (≈ 0.655 µM); MIC (E. coli GC 4559; Water pre-incubation): 32 µg/mL (≈ 41.9 µM); MIC (S. typhimurium GC 2172; Mouse Serum pre-incubation): 4 µg/mL (≈ 5.24 µM); MIC (S. typhimurium GC 2172; Water pre-incubation): > 64 µg/mL; MIC (E. faecalis GC 2242; Mouse Serum pre-incubation): 0.25 µg/mL (≈ 0.327 µM); MIC (E. faecalis GC 2242; Water pre-incubation): 0.5 µg/mL (≈ 0.655 µM); MIC (E. coli GC 4560; Mouse Serum pre-incubation): 0.12 µg/mL (≈ 0.157 µM); MIC (E. coli GC 4560; Water pre-incubation): 0.12 µg/mL (≈ 0.157 µM); MIC (E. coli GC 2231; Mouse Serum pre-incubation): 2 µg/mL (≈ 2.62 µM); MIC (E. coli GC 2231; Water pre-incubation): 64 µg/mL (≈ 83.8 µM)
CCCCN(CC(=O)Nc1cc(N(C)C)c2c(c1O)C(=O)C1=C(O)[C@]3(O)C(=O)C(C(N)=O)=C(O)[C@@H](N(C)C)[C@@H]3C[C@@H]1C2)C(=O)OCOC(=O)Cc1ccccc1 [Example 12, ({[(2-{[(5aR,6aS,7S,10aS)-9-(aminocarbonyl)-4,7-bis(dimethylamino)-1,8,10a,11-tetrahydroxy-10,12-dioxo-5,5a,6,6a,7,10,10a,12-octahydrotetracen-2-yl]amino}-2-oxoethyl)(butyl)amino]carbonyl}oxy)methyl phenylacetate]	2 (≈ 2.57 µM)	64 (≈ 82.3 µM)	0.5 (≈ 0.643 µM)	32 (≈ 41.1 µM)	0.5 (≈ 0.643 µM)	16 (≈ 20.6 µM)	32 (≈ 41.1 µM)	> 64	1 (≈ 1.29 µM)	32 (≈ 41.1 µM)	1 (≈ 1.29 µM)	16 (≈ 20.6 µM)	0.25	0.25 (≈ 0.321 µM)	0.5 (≈ 0.643 µM)	32 (≈ 41.1 µM)	15	1	2 (≈ 2.57 µM)	8 (≈ 10.3 µM)	MIC (S. aureus GC 6467; Mouse Serum pre-incubation): 4 µg/mL (≈ 5.14 µM); MIC (S. aureus GC 6467; Water pre-incubation): 16 µg/mL (≈ 20.6 µM); MIC (S. aureus GC 2216; Mouse Serum pre-incubation): 1 µg/mL (≈ 1.29 µM); MIC (S. aureus GC 2216; Water pre-incubation): 4 µg/mL (≈ 5.14 µM); MIC (S. pneumoniae* GC 4465; Mouse Serum pre-incubation): < 0.06 µg/mL; MIC (S. pneumoniae* GC 4465; Water pre-incubation): 0.12 µg/mL (≈ 0.154 µM); MIC (E. faecium GC 4556; Mouse Serum pre-incubation): 1 µg/mL (≈ 1.29 µM); MIC (E. faecium GC 4556; Water pre-incubation): 4 µg/mL (≈ 5.14 µM); MIC (S. aureus GC 6335; Mouse Serum pre-incubation): 1 µg/mL (≈ 1.29 µM); MIC (S. aureus GC 6335; Water pre-incubation): 2 µg/mL (≈ 2.57 µM); MIC (E. coli GC 4559; Mouse Serum pre-incubation): 1 µg/mL (≈ 1.29 µM); MIC (E. coli GC 4559; Water pre-incubation): 64 µg/mL (≈ 82.3 µM); MIC (S. typhimurium GC 2172; Mouse Serum pre-incubation): 4 µg/mL (≈ 5.14 µM); MIC (S. typhimurium GC 2172; Water pre-incubation): > 64 µg/mL; MIC (E. faecalis GC 2242; Mouse Serum pre-incubation): 2 µg/mL (≈ 2.57 µM); MIC (E. faecalis GC 2242; Water pre-incubation): 4 µg/mL (≈ 5.14 µM); MIC (E. coli GC 4560; Mouse Serum pre-incubation): 0.25 µg/mL (≈ 0.321 µM); MIC (E. coli GC 4560; Water pre-incubation): 1 µg/mL (≈ 1.29 µM); MIC (E. coli GC 2231; Mouse Serum pre-incubation): 2 µg/mL (≈ 2.57 µM); MIC (E. coli GC 2231; Water pre-incubation): 64 µg/mL (≈ 82.3 µM)
